In patent publication US20120171194A1, “Method of Cell Differentiation and Uses Therefor in Screening, Diagnosis and Therapy” (priority 2009, published 2012):

Test system: co-culture of HLA-A2 positive monocytes and HLA-A2 negative HUVECs
Assay: Co-culture of PBMC-derived monocytes with HUVECs: endothelial incorporation of monocyte-derived EC-like cells (flow cytometry, HLA-A2)
Type: cell-based, human
Settings: day 3; for proportion of HLA-A2 positive cells of the total cell population: no apoA-I control about 15%; for endothelial incorporation of HLA-A2 positive monocyte-derived endothelial-like cells into the HUVECs layer (effect in words): apoA-I 0.25, 0.5 and 2.0 mg/ml
Procedure: Human umbilical vein ECs (HUVEC) were isolated from human umbilical veins using collagenase digestion. Briefly, umbilical cords from normal or caesarean deliveries are collected and perfused with Ca^2+ and Mg^2+-free phosphate buffer saline (PBS). HUVECs were removed by short treatment at 37° C. with collagenase solution (0.1% in PBS with Ca^2+ and Mg^2+). HUVECS were cultured and expanded for use in investigation at no later than passage 4. Cells were grown under standard culture conditions of 37° C. in a 95% air/5% CO2 atmosphere in M199 media (Cell Applications or Invitrogen Australia) supplemented with 10% foetal bovine serum (FBS; Trace Bioscience, or Invitrogen Australia) or with 10% heat-inactivated human serum and with a D-glucose concentration of 5.0 mM. The human serum was obtained from healthy donors within 7 days of the experiment. The human serum was filtered with 0.22 μm PES membrane (Millipore) and heat inactivated at 56° C. for 30 minutes.
The ECs were screened for human leucocyte antigen-A2 type (HLA-A2) expression with direct immunofluorescence and flow cytometry (Beckman Coulter). The batches of HUVEC cells that were HLA-A2 negative were used in these investigations. Alternatively, batches of HACECs that are HLA-A2 negative are used in these investigations. The batches of HLA-A2 negative HUVECs preferably at second passage were grown to approximately 75% sub-confluence on 6-wells cell culture plates (Becton Dickinson Labware, growth area 9.6 cms^2 per well) at a density varying from 10,000 to 500,000 cells per well 24 hours before the co-culture. Usually a density of 500,000 cells per well is needed to achieve a fully confluent layer of HUVECS. Alternatively, batches of HLA-A2 negative HCAECs preferably at second passage are grown to approximately 75% sub-confluence on 6-wells cell culture plates (Bectin Dickinson Labware).
Fresh peripheral blood mononuclear cells (PBMCs) were obtained from venous blood of healthy HLA-A2 positive donors (n=5) by gradient centrifugation on Lymphoprep in a hypertonic medium (Lymphoprep™) and immediately seeded onto HUVECs. Alternatively, the PBMCs are immediately seeded onto HCAECs layers at densities ranging from 0.25 to 2×10^6 cells per well. […] The co-cultured cell layer containing HUVECs were detached at multiple time points between day 0 and day 6 by addition of 20 μl of detachment solution containing 0.12% trypsin and analyzed by direct immunofluoresence and flow cytometry inter alia for expression of cell surface markers. […]
Expression of cell surface markers was analyzed by two-colors direct immunofluoresence and flow cytometry (Cytomics FC500, Beckman Coulter). […]

## apolipoprotein A-I [apoA-I]
0.5 mg/ml apoA-I in co-culture, t test P<0.01
  proportion of HLA-A2 positive cells of the total cell population: about 33%
2.0 mg/ml apoA-I in co-culture
  proportion of HLA-A2 positive cells of the total cell population: about 37%
  endothelial incorporation of HLA-A2 positive monocyte-derived endothelial-like cells into the HUVECs layer (effect in words): dose dependent increase
Listed as ApoA-I
  endothelial incorporation of HLA-A2 positive monocyte-derived endothelial-like cells into the HUVECs layer (effect in words): increased endothelial incorporation
